Values belong to the compound of their own block, whether it stands above or below them. Active and inactive are the calls of the source. The calls are words filed in the database; no cut-off is given here.
What was measured:
Complement C5 [1] = biological target: T1, Complement C5 (Homo sapiens, UniProt P01031); assay: Binding affinity to human C5a assessed as Potassium iodide-induced quenching by measuring Stern-Volmer quenching constant at 1 uM by fluorescence analysis
Complement C5 [2] = biological target: T1, Complement C5; assay: Binding affinity to human C5a assessed as dissociation constant after 1 hr by circular dichroism analysis
Complement C5 [3] = biological target: T1, Complement C5; assay: Binding affinity to recombinant human C5a assessed as loss of super secondary structure at > 10 uM incubated for 1 hr at 4 degC by circular dichroism analysis
Complement C5 [4] = biological target: T1, Complement C5; assay: Induction of human recombinant C5a destabilization assessed as protein structure helicity up to 10 uM by circular dichroism analysis
Complement C5 [5] = biological target: T1, Complement C5; assay: Binding affinity to recombinant human C5a assessed as conformational change =< 1 uM at 4 degC incubated for 1 hr by circular dichroism analysis
Complement C5 [6] = biological target: T1, Complement C5; assay: Binding affinity to human C5a assessed as loss of secondary structure by measuring red shift in absorption maxima at 10 to 100 uM by fluorescence analysis
Complement C5 [7] = biological target: T1, Complement C5; assay: Induction of human recombinant C5a unfolding by circular dichroism analysis
Complement C5 [8] = biological target: T1, Complement C5; assay: Binding affinity to human C5a assessed as induction of conformational change with no shift in absorption maxima at 1 uM by fluorescence analysis
Complement C5 [9] = biological target: T1, Complement C5; assay: Binding affinity to recombinant human C5a assessed as conformational change at 1 to 100 uM incubated for 1 hr at 4degC by circular dichroism analysis
Complement C5 [10] = biological target: T1, Complement C5; assay: Induction of recombinant human C5a destabilization assessed as protein unfolding at 6 M by circular dichroism analysis
Complement C5 [11] = biological target: T1, Complement C5; assay: Induction of recombinant human C5a destabilization assessed as protein unfolding at 6 M incubated for overnight by fluorescence analysis
Complement C5 [12] = biological target: T1, Complement C5; assay: Induction of recombinant human C5a destabilization assessed as protein unfolding at 6 M after 1 hr by fluorescence analysis
Complement C5 [13] = biological target: T1, Complement C5; assay: Induction of recombinant human C5a destabilization assessed as intrinsically disordered structure at 2 to 4 M by circular dichroism analysis
Complement C5 [14] = biological target: T1, Complement C5; assay: Induction of recombinant human C5a destabilization assessed as intrinsically disordered structure at 8 M incubated for overnight by fluorescence analysis
Complement C5 [15] = biological target: T1, Complement C5; assay: Induction of recombinant human C5a destabilization assessed as intrinsically disordered structure at 2 to 8 M by circular dichroism analysis
Complement C5 [16] = biological target: T1, Complement C5; assay: Induction of recombinant human C5a destabilization assessed as intrinsically disordered structure at 8 M incubated for 1 hr by fluorescence analysis

Structure (SMILES): CC1=C(CC(=O)O)c2cc(F)ccc2/C1=C\c1ccc([S+](C)[O-])cc1 (stereo not drawn)
KSV (Complement C5 [1]): 2.5 M⁻¹ | Activity (Complement C5 [3]): Active | Activity (Complement C5 [4]): 5% | Activity (Complement C5 [5]): Active | Activity (Complement C5 [6]): Active | Activity (Complement C5 [7]): Active | Activity (Complement C5 [8]): Active | Kd (Complement C5 [2]): 570 nM | Activity (Complement C5 [9]): Active

Structure (SMILES): N=C(N)N
Activity (Complement C5 [10]): Active | Activity (Complement C5 [11]): Active | Activity (Complement C5 [12]): Active | Activity (Complement C5 [13]): Active

Structure (SMILES): NC(N)=O
Activity (Complement C5 [14]): Active | Activity (Complement C5 [15]): Active | Activity (Complement C5 [16]): Active

Structure (SMILES): O=C(c1ccc(OCCN2CCCCC2)cc1)c1c(-c2ccc(O)cc2)sc2cc(O)ccc12 [RALOXIFENE]
KSV (Complement C5 [1]): 1.1 M⁻¹ | Kd (Complement C5 [2]): 710 nM

The next lines start with the values.

KSV (Complement C5 [1]): 12.4 M⁻¹
Structure (SMILES): CC(=O)N[C@@H](Cc1c[nH]c2ccccc12)C(N)=O

KSV (Complement C5 [1]): 2.6 M⁻¹ | Kd (Complement C5 [2]): 580 nM
Structure (SMILES): CC(C(=O)O)c1ccc2c(c1)[nH]c1ccc(Cl)cc12 (stereo not drawn) [CARPROFEN]

KSV (Complement C5 [1]): 4.3 M⁻¹ | Kd (Complement C5 [2]): 640 nM
Structure (SMILES): O=C(O)CCc1nc(-c2ccccc2)c(-c2ccccc2)o1 [OXAPROZIN]

Reference: ChEMBL document CHEMBL4396950, “A rational search for discovering potential neutraligands of human complement fragment 5a (hC5a)” (Bioorg Med Chem, 2019)
